PMC5735191, “Computational and biological profile of boronic acids for the detection of bacterial serine- and metallo-β-lactamases” (Scientific Reports, 2017)
Values joined by “and” are separate entries in the source; they are usually repeats but may differ in a detail not shown here. Equal values may be shown once.

What was measured:
[1] = test system: CC(=O)OCC1=C(C(=O)O)N2C(=O)[C@@H](NC(=O)Cc3cccs3)[C@H]2SC1; experiment: purified protein, by the assay type; details: 37.0 °C
[2] = biological target: NDM-1 (Klebsiella pneumoniae, UniProt C7C422); experiment: Enzyme inhibition assay (spectrophotometric, cephalothin reporter substrate); assay type: biochemical; design: His-tag; made in house; host or cells: E. coli BL21(DE3), pET-15-NDM-1; details: mean of two replicates, five inhibitor concentrations, Dixon plot; pH 7.5, 25 °C
NDM-1, sequence (C7C422 29-270 limits assumed): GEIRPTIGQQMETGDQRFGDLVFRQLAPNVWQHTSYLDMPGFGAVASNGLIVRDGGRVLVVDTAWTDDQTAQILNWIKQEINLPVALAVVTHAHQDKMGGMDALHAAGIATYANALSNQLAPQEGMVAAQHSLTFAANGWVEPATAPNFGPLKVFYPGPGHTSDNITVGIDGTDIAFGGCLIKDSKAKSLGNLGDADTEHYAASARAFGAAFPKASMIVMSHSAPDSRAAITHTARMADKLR
Method: (§1) To obtain a well-characterized inhibition profile for each selected boronic acids against each BLs in the panel, the compounds were tested for inhibitory activity. The protein panel included clinically- and epidemiologically-relevant β-lactamases, representatives of each structural class (A to D), as mentioned above. Each BL was overexpressed in E. coli, purified by chromatography and characterized as already reported. (SI, Table S1)[40]–[45].
(§2) Reactions were initiated with addition of BL enzyme (the concentration values for each BL enzyme into the SI, Table S1 have been reported).

[3] = biological target: T1, CTX-M-15 (Escherichia coli, UniProt Q9EXV5); experiment: as above; assay type: biochemical; details: IC50 CTX-M-15, mean of two replicates, five inhibitor concentrations, Dixon plot; pH 7.5, 25 °C
T1 construct: made in house; host or cells: E. coli BL21(DE3), pET-9a derivative (pET-CTX-M-15)
T1 sequence (Q9EXV5 entry or part of it): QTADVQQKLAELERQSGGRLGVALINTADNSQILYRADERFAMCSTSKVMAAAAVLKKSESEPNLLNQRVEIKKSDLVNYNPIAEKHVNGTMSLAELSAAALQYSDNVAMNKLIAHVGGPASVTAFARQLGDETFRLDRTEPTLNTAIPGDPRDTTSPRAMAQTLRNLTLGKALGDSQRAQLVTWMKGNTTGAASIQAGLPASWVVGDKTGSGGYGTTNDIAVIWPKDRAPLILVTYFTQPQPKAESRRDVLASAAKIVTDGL
Method: as §1, §2
(§3) From the resulting inhibition percentages at each different inhibitor concentration and, assuming a competitive inhibition for the boronic compounds panel, it was possible to calculate the IC50 values from the Dixon plot 1/V vs [I], using the equation IC50 = […][61], where v0 is the rate of hydrolysis of the reporter substrate (v0 being the rate measured in the absence of inhibitor), q the y axis intercept and m the slope of the resulting linear regression.

[4] = biological target: T2, OXA-24 (Acinetobacter baumannii, UniProt Q8RLA6); experiment: as above; assay type: biochemical
T2 construct: GST (N, cleaved yes); made in house; host or cells: E. coli DH5α, pGEX-2T-OXA-24
T2 sequence (Q8RLA6 22-275 limits assumed): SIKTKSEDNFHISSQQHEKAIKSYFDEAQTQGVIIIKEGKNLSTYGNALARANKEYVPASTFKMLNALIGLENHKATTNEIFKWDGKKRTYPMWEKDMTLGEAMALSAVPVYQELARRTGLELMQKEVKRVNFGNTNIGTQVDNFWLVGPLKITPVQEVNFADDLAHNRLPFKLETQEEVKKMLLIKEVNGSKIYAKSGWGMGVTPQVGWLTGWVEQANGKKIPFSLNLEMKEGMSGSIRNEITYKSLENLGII
Method: as §1, §2, §3

[5] = biological target: T3, AmpC β-lactamase (Pseudomonas aeruginosa, UniProt P24735); experiment: as above; assay type: biochemical, P. aeruginosa; details: mean of two replicates, five inhibitor concentrations, Dixon plot, 100 μM cephalothin, pH 7.5, 25 °C
T3 construct: made in house; host or cells: E. coli BL21(DE3), plasmid pET-9aAmpC
T3 sequence (P24735 27-397): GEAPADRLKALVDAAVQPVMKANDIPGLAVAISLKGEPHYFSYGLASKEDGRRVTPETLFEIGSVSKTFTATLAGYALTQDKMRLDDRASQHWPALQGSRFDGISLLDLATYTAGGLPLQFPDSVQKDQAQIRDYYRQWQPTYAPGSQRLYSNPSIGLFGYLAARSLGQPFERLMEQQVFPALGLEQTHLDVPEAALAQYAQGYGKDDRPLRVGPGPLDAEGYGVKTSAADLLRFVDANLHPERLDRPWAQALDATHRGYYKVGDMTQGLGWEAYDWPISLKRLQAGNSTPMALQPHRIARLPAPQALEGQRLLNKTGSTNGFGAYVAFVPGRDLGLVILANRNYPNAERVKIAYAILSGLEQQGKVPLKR
Method: as §1, §2, §3

[6] = test system: P. aeruginosa 12, overproduction chromosomal AmpC; experiment: Susceptibility testing (MIC), synergy with ceftazidime; assay type: cell-based; details: antibiotic:inhibitor 1:1 (w/w)
Method: (§4) The minimum inhibitory concentrations (MICs), for CAZ and CTX alone and in combination with boronic acids against resistant strains were determined (Table 2a,b).
(§5) Susceptibility testing was performed in Mueller Hinton broth and interpreted following the guidelines of the National Committee for Clinical Laboratory Standards[70]. To test the inhibitory activity, the compounds were dissolved in DMSO, 50% in water, and further dilutions were performed using growth medium. In all cases tests were performed at a final DMSO concentration below 5%, avoiding unwanted DMSO inhibition effect on strains growth (blank test control with DMSO were performed). The MICs of cefotaxime and ceftazidime alone and in association were determined against several relevant Gram-negative clinical isolates, selected from the pathogen collection of the Spanish Network for Research in Infectious Pathology (REIPI; Spain). The selection was based on strains capability of producing β-lactamases of interest for the present study. The antibiotic:inhibitor ratio was 1:1 (w/w).

[7] = test system: P. aeruginosa 120, overproduction chromosomal AmpC; experiment: as above; assay type: cell-based; details: antibiotic:inhibitor 1:1 (w/w)
Method: as §4, §5

[8] = test system: P. aeruginosa 199, overproduction chromosomal AmpC; experiment: as above; assay type: cell-based; details: antibiotic:inhibitor 1:1 (w/w)
Method: as §4, §5

[9] = test system: E. coli clinical isolate, plasmidic AmpC - DHA1; experiment: as above; assay type: cell-based; details: E. coli, plasmidic AmpC - DHA1; antibiotic:inhibitor 1:1 (w/w)
Method: as §4, §5

[10] = test system: P. aeruginosa 148, overproduction chromosomal AmpC; experiment: as above; assay type: cell-based; details: antibiotic:inhibitor 1:1 (w/w)
Method: as §4, §5

[11] = test system: E. coli clinical isolate, overproduction chromosomal AmpC; experiment: as above; assay type: cell-based; details: antibiotic:inhibitor 1:1 (w/w)
Method: as §4, §5

[12] = test system: P. aeruginosa 49, overproduction chromosomal AmpC; experiment: as above; assay type: cell-based; details: antibiotic:inhibitor 1:1 (w/w)
Method: as §4, §5

[13] = biological target: VIM-2 (Escherichia coli, UniProt Q5U7L7); experiment: Enzyme inhibition assay (spectrophotometric, cephalothin reporter substrate); assay type: biochemical; design: made in house; host or cells: E. coli BL21(DE3), pET9-VIM-2; details: mean of two replicates, five inhibitor concentrations, Dixon plot; pH 7.5, 25 °C
Method: as §1, §2

[14] = biological target: T4, KPC-2 (Klebsiella pneumoniae, UniProt Q9F663); experiment: as above; assay type: biochemical; details: mean of two replicates, five inhibitor concentrations, Dixon plot; pH 7.5, 25 °C
T4 construct: made in house; host or cells: E. coli BL21(DE3), pET9-KPC2
T4 sequence (Q9F663 25-293 limits assumed): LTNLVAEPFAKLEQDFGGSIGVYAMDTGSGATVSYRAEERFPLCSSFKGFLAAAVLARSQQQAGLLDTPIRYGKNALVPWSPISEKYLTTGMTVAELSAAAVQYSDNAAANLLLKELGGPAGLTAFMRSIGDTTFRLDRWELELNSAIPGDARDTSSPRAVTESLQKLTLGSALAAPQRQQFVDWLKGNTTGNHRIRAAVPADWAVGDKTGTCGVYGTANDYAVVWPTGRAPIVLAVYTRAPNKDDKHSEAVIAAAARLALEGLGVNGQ
Method: as §1, §2

[15] = test system: CTX-M-15 E. coli clinical isolate; experiment: Susceptibility testing (MIC), synergy with cefotaxime; assay type: cell-based; details: for MIC of cefotaxime (CTX) in combination with compound: CTX-M-15 E. coli, antibiotic:inhibitor 1:1 (w/w)
Method: as §4, §5

[16] = test system: OXA-24 A. baumanii clinical isolate; experiment: as above; assay type: cell-based; details: antibiotic:inhibitor 1:1 (w/w)
Method: as §4, §5

[17] = test system: KPC-2 K. pneumoniae clinical isolate; experiment: as above; assay type: cell-based; details: KPC-2 K. pneumoniae; antibiotic:inhibitor 1:1 (w/w)
Method: as §4, §5

[18] = test system: VIM-2 P. aeruginosa clinical isolate; experiment: as above; assay type: cell-based; details: antibiotic:inhibitor 1:1 (w/w)
Method: as §4, §5

[19] = test system: NDM-1 E. coli clinical isolate; experiment: as above; assay type: cell-based; details: antibiotic:inhibitor 1:1 (w/w)
Method: as §4, §5

[20] = test system: E. aerogenes clinical isolate, overproduction chromosomal AmpC; experiment: Susceptibility testing (MIC), synergy with ceftazidime; assay type: cell-based; details: antibiotic:inhibitor 1:1 (w/w)
Method: as §4, §5

[21] = test system: E. cloacae clinical isolate, overproduction chromosomal AmpC; experiment: as above; assay type: cell-based; details: overproduction chromosomal AmpC, antibiotic:inhibitor 1:1 (w/w)
Method: as §4, §5

[22] = other: β-lactam substrate of CTX-M-15, enzyme 0.067 µM
[23] = other: β-lactam substrate of OXA-24, enzyme 0.035 µM

| Compound | IC50 [2] | IC50 [3] | IC50 [4] | IC50 [5] | MIC of ceftazidime (CAZ) in combination with compound [6] | MIC of ceftazidime (CAZ) in combination with compound [7] | MIC of ceftazidime (CAZ) in combination with compound [8] | MIC of ceftazidime (CAZ) in combination with compound [9] | MIC of ceftazidime (CAZ) in combination with compound [10] | MIC of ceftazidime (CAZ) in combination with compound [11] | MIC of ceftazidime (CAZ) in combination with compound [12] | IC50 [13] | IC50 [14] | MIC of cefotaxime (CTX) in combination with compound [15] | MIC of cefotaxime (CTX) in combination with compound [16] | MIC of cefotaxime (CTX) in combination with compound [17] | MIC of cefotaxime (CTX) in combination with compound [18] | MIC of cefotaxime (CTX) in combination with compound [19] | further results |
| --- | --- | --- | --- | --- | --- | --- | --- | --- | --- | --- | --- | --- | --- | --- | --- | --- | --- | --- | --- |
| CTX-M-15 (Escherichia coli) |  |  |  |  |  |  |  |  |  |  |  |  |  |  |  |  |  |  | Km [1, 22]: 41 ± 3 µM; kcat [1, 22]: 35 ± 7 s⁻¹; kcat/Km [1, 22]: 850000 M⁻¹ s⁻¹ |
| CC(C)(C)OC(=O)c1cccc2cc(B3OC(C)(C)C(C)(C)O3)sc12 [Compound 4] | 35.7 ± 7.46 µM | 4.49 µM and 4.5 µM | 38 ± 7.64 µM | 3.88 µM and 3.9 µM | 32 µg/mL | 4 µg/mL | 64 µg/mL | 512 µg/mL | 32 µg/mL | 512 µg/mL | 64 µg/mL | 20.2 ± 0.07 µM | 8.22 µM and 5.4 µM | 64 µg/mL | 64 µg/mL | 4 µg/mL | 1024 µg/mL | 1024 µg/mL |  |
| OXA-24 (Acinetobacter baumannii) |  |  |  |  |  |  |  |  |  |  |  |  |  |  |  |  |  |  | Km [1, 23]: 20 ± 2 µM; kcat [1, 23]: 1000 ± 150 s⁻¹; kcat/Km [1, 23]: 5e+07 M⁻¹ s⁻¹ |
| CC1(C)OB(c2cc3cccc(C(=O)O)c3s2)OC1(C)C [Compound 5] | 32.4 ± 7.14 µM | 9.4 ± 3.48 µM | 23 ± 4.38 µM | 1.3 ± 0.01 µM | 16 µg/mL | 4 µg/mL | 16 µg/mL | 512 µg/mL | 32 µg/mL | 64 µg/mL | 32 µg/mL | 27.7 ± 3.65 µM | 5.38 µM and 8.2 µM | 16 µg/mL | 16 µg/mL | 4 µg/mL | 1024 µg/mL | 1024 µg/mL | MIC of ceftazidime (CAZ) in combination with compound [20]: 32 µg/mL; MIC of ceftazidime (CAZ) in combination with compound [21]: 64 µg/mL; MIC reduction of CTX (fold) ([15]; E. coli producing CTX-M-15, CTX combination): 4 fold |
